Several values for one entry are separate records, joined by “and”; a condition that tells them apart may be missing. Equal values may be shown once.
Target: H.c.LSU group II intron
Type: biochemical, Histoplasma capsulatum
Settings: logistic fit of kobs against 14 inhibitor concentrations, 5 nM to 300 μM; MB18 readout; 37° C.; read-out: KI (inhibition constant) of the self-splicing reaction

O=C1c2c(O)ccc(O)c2C(=O)c2c(NCCNCCO)ccc(NCCNCCO)c21 [mitoxantrone]
Ki: 1790 nM and 2240 nM
